This passage reports IC50 results from paper PMC3731256, “Optimization of Substituted 6-Salicyl-4-Anilinoquinazoline Derivatives as Dual EGFR/HER2 Tyrosine Kinase Inhibitors” (PLoS ONE, 2013).

In one assay the target is T1, cSRC (Homo sapiens, UniProt P12931).
T1 construct: purchased Millipore Corp
As to the kind of experiment: Tyrosine kinase profiling (Alphascreen), cSRC. Type of assay: biochemical. The conditions noted are these: ATP concentration = Km. On the procedure:
The cytoplasmic domain of vascular endothelial growth factor receptor 2 (VEGFR2), platelet-derived growth factor receptor α (PDGFRα), cSRC were purchased from Millipore Corp. Assays for 3 tyrosine kinases were performed in 384 well plates using the Alphascreen® system (PerkinElmer) at room temperature. Enzyme reactions were performed in 50 mM Tris–HCl, pH7.5, 5 mM MnCl2, 5 mM MgCl2, 0.01% Tween-20, 2 mM dithiothreitol and 0.1 μg/ml biotinylated poly-GluTyr (4:1) containing optimized concentration of enzyme and ATP as described below.
Prior to the kinase reaction, compound and enzyme were incubated for 5 min at room temperature. The reactions were initiated by adding ATP. After the reaction period as described below at room temperature, the reactions were stopped by the addition of 25 μl of 100 mM EDTA, 10 μg/ml Alphascreen streptavidin donor beads and 10 μg/ml acceptor beads described below in 62.5 mM HEPES, pH 7.4, 250 mM NaCl, and 0.1% BSA. Plates were incubated in the dark for more than 12 h and then read by EnVision 2102 Multilabel Reader (PerkinElmer). The well containing substrate and enzyme without compound was used as total reaction control. […]
On the technique in general: Alpha assays give light when donor and acceptor beads are brought close together.

In a further assay the target is T2, Aurora B (Homo sapiens, UniProt Q96GD4).
T2 construct: 6xHis (N); made in house; host or cells: baculovirus expression system
Kind of assay: Serine/threonine kinase profiling ([γ-32P] ATP), Aurora B. The conditions noted are these: ATP concentration = Km. In kind it is biochemical. The procedure:
Assays for 4 serine/threonine kinases using radio labeled [γ-^32P] ATP (GE Healthcare, Piscataway, NJ) were performed in 96 well plates. Mitogen-activated protein kinase p38α (p38α), was expressed as N-terminal FLAG-tagged protein using a baculovirus expression system. Aurora-A and -B were expressed as N-terminal 6xHis tagged protein using a baculovirus expression system. CDK2/CycA was expressed as C-terminal 6His-tagged CDK2, and N-terminal GST-tagged Cyclin A protein using a baculovirus expression system.
The reaction conditions were optimized for each kinase: p38α (100 ng/well of enzyme, 1 μg/well of MBP (Wako Pure Chemical Ind., Osaka, Japan), 0.1 μCi/well of [γ-^32P] ATP, 60 min reaction at 30 ℃); Aurora-A and -B (50 ng/well of enzyme, 30 μM of Aurora substrate peptide, 0.2 μCi/well of [γ-^32P] ATP, 60 min reaction at room temperature); CDK2/CycA (1.8 mUnits/well of enzyme, 1 μg/well of Histone H1 (Calbiochem), 0.2 μCi/well of [γ-^32P] ATP, 20 min reaction at room temperature).
All the four enzyme reactions were performed in 25 mM HEPES, pH 7.5, 10 mM magnesium acetate, 1 mM dithiothreitol and 0.5 μM ATP containing optimized concentration of enzyme, substrate and radiolabeled ATP as described above in a total volume of 50 μl. […] The radioactivity was counted by a TopCount scintillation counter (PerkinElmer).

T2 sequence (Q96GD4 whole entry): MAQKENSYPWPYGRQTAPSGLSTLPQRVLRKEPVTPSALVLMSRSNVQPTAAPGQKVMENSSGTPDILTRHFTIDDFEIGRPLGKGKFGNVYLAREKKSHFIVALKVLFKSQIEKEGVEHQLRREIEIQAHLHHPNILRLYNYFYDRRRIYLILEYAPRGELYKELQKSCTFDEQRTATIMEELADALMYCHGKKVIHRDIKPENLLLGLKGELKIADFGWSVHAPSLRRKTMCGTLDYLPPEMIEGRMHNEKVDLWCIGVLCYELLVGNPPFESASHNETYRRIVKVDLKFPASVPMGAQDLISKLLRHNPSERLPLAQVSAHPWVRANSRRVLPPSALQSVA
T1 sequence (P12931 whole entry, species assumed): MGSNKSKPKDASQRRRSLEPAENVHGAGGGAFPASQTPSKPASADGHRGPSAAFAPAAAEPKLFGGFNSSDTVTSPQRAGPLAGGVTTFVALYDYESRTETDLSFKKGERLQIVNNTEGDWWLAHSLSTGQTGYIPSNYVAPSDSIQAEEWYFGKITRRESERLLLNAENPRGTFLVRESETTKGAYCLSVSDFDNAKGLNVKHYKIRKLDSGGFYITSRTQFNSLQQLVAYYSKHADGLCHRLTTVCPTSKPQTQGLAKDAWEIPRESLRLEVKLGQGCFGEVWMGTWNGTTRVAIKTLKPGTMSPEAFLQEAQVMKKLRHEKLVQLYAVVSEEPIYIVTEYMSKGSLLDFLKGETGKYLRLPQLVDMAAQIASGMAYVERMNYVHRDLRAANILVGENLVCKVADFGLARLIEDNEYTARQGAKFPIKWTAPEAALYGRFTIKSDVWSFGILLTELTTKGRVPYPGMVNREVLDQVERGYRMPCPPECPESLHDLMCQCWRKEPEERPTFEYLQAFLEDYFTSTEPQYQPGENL

Usually IC50 stands for the concentration that gives 50% inhibition. Regarding `O=C(Nc1ccc2ncnc(Nc3cccc(Br)c3)c2c1)c1ccc(C(F)(F)F)cc1O` [Compound 21, N-(4-(3-bromophenylamino)quinazolin-6-yl)-2-hydroxy-4-(trifluoromethyl)benzamide], the IC50 against cSRC amounted to 11.9 ± 0.78 µM; against Aurora B, 63.7 ± 1.02 µM.
